Test results published in patent publication US20260250412A1, “COMBINATION OF ANTIBODY-DRUG CONJUGATE AND ANTI-PD-1 ANTIBODY, AND USE THEREOF” (GENEQUANTUM HEALTHCARE (SUZHOU) CO., LTD., priority 2023, published 2026).
Several values for one entry are separate records, joined by “and”; a condition that tells them apart may be missing. Identical values can stand only once.

Experiments:
[1] = tested on: Trop2-positive cells BxPC-3 and Trop2-negative cells HepG2; test: Bystander killing in BxPC-3/HepG2 co-culture assay (BxPC-3:HepG2=4:1); type: cell-based, human; details: 10 nM, 96 h
Protocol: (§1) After the treatment, the cells were moved to the incubator and incubated for 96 h. After the incubation, cells were digested, and washed once with 1×PBS, then transferred to a flow tube, and centrifuged at 2000 rpm for 3 min. The supernatant was then discarded, and the cell amount and cell viability were detected. […] The cells were washed with 1×PBS, the supernatant was discarded after centrifugation, 200 μL of 5 μg/mL human IgG Fe antibody was added, and the resulting cells were continued to incubate at 4° C. for 30 min after mixing. Finally, the cells were washed with 1×PBS, the supernatant was discarded after centrifugation, and the cells were resuspended in PBS, detected by flow cytometry and analyzed by FlowJo software.

[2] = tested on: Trop2-positive cells BxPC-3 and Trop2-negative HepG2 cells; test: Bystander killing in BxPC-3/HepG2 co-culture assay (BxPC-3:HepG2=2:1); type: cell-based, human
Protocol: as §1

[3] = tested on: human pharyngeal squamous cells carcinoma FaDu; test: Cell proliferation, CellTiter Glo, 96 h, FaDu; type: cell-based
Protocol: A positive control group was set: 100 μL Puromycin at a concentration of 10 μg/mL was added to each well. […] After the administration was completed, the cells were moved to the incubator and incubated for 96 h. The 96-well plate was removed from the 37° C. cell incubator and equilibrated to room temperature for 30 minutes. After the medium was discarded, 100 μL of DMEM and 50 μL of CellTiter Glo reagent were added to each well, and the cells were shaken in the dark at 200 rpm for 15 minutes, and the luminescent signal reflecting cell viability was detected by a microplate reader.

[4] = tested on: human breast cancer cells MDA-MB-468; test: Cell proliferation, CellTiter Glo, 96 h, MDA-MB-468; type: cell-based; details: MDA-MB-468, 96 h
[5] = tested on: Trop2 positive cancer cells BxPC-3; test: Cytotoxicity assay, CellTiter-Glo, 168 h, BxPC-3; type: cell-based, human
Protocol: (§2) In brief, 3000 to 5000 cells were plated in 96-well plates, and cells were able to attach overnight. Cells were treated with indicated drugs with various concentrations for 168 h. Cell viabilities were examined by CellTiter-Glo® Luminescent Cell Viability Assay, and percentage of cell viability was calculated.

[6] = tested on: Trop2 positive cancer cells FaDu; test: Cytotoxicity assay, CellTiter-Glo, 168 h, FaDu; type: cell-based, human
Protocol: as §2

[7] = tested on: Trop2 positive cancer cells NCI-N87; test: Cytotoxicity assay, CellTiter-Glo, 168 h, NCI-N87; type: cell-based, human
Protocol: as §2

[8] = tested on: BxPC-3 mouse xenograft tumor; test: In vivo efficacy, BxPC-3 mouse xenograft tumor; design: species or system BALB/c nude mice; details: for T/C (%) / TGI (%) / Tumor volume (mm^3) Day 0 / tumor growth inhibition (in words): 3 mg/kg; for Tumor volume (mm^3) Day 0: baseline at grouping
Protocol: I. The logarithmic growth phase BxPC-3 were collected and the cell density was adjusted to 10×10^6 cells/mL with Matrigel buffer (PBS:Matrigel=1:1). 0.2 mL of the prepared BxPC-3 cell suspension was subcutaneously injected into the right scapula of SPF female BALB/c nude mice aged 6-8 weeks.
(§3) II. The tumor diameter was measured with a vernier caliper and the tumor volume was calculated according to the formula V=0.5a×b^2 (where a is the longest diameter of the tumor and b is the shortest diameter of the tumor). […] Animals in each group were administered by tail vein injection, and the control group was given an equal volume of vehicle. […] T/C and TGI values were calculated using tumor volume. The calculation formula is as follows: T/C %=TRTV/CRTV×100% (TRTV: RTV of the treatment group; CRTV: RTV of the vehicle control group). The relative tumor volume (RTV) was calculated based on the results of tumor measurement, and the calculation formula was RTV=Vt/V0, where V0 was the average tumor volume measured at the time of grouping (i.e., D0), Vt was the average tumor volume at one measurement, and TRTV and CRTV took the same day of data.
6 days after cell inoculation, when the average tumor volume was about 159 mm^3, animals were randomly divided into vehicle control group, ADC-5 3 mg/kg group, ADC-6 3 mg/kg group, and DS1062a 3 mg/kg group, with 6 animals in each group.

[9] = tested on: human breast cancer BR-05-0028 model; test: In vivo efficacy, human breast cancer BR-05-0028 mouse xenograft tumor; design: species or system BALB/c nude mice
Protocol: as §3
The human breast cancer BR-05-0028 model (IHC 3±) was derived from tumor samples resected in clinical surgery. The tumor samples were inoculated into nude mice at the P0 generation, and the tumor tissue used in this example was the P5 generation. Tumor tissue with a volume of about 30 mm^3 was subcutaneously inoculated into the right back dorsum of SPF female BALB/c nude mice aged 6-8 weeks.

[10] = Table 6, same process as effect example 1.2
[11] = Table 15, single dose, 5 mg/kg, Day 21

Question: DS1062a was tested. Which “Amount of cells (10^4) BxPC-3” value ([1]; Table 4) did it give?
Answer: Its value is 10.88 10^4.

Question: And the “Amount of cells (10^4) HepG2” value ([1]; Table 4)?
Answer: Its value is 33.72 10^4.

Question: What about the “Cell proportion (%) BxPC-3” value ([1]; Table 4) of the same substance?
Answer: Its value is 24.4%.

Question: And the “Cell proportion (%) HepG2” value ([1]; Table 4)?
Answer: Its value is 75.6%.

Question: And the “Number of viable cells (10^4)” value ([1]; Table 4, whole co-culture)?
Answer: Its value is 44.6 10^4.

Question: What about the “bystander killing effect (in words)” value ([1]; effect example 1.1) of the same substance?
Answer: The value was “had bystander killing effects”.

Question: What about the “Amount of cells (10^4) BxPC-3” value ([2]; Table 5, 10 nM) of the same substance?
Answer: The value was 12.25 10^4.

Question: And the “Amount of cells (10^4) HepG2” value ([2]; Table 5, 10 nM)?
Answer: Its value is 144.75 10^4.

Question: What about the “Cell proportion (%) BxPC-3” value ([2]; Table 5, 10 nM) of the same substance?
Answer: The value was 7.8%.

Question: And the “Cell proportion (%) HepG2” value ([2]; Table 5, 10 nM)?
Answer: The value was 92.2%.

Question: And the “Number of viable cells (10^4)” value ([2]; Table 5, 10 nM, whole co-culture)?
Answer: The value was 157.0 10^4.

Question: What about the “Amount of cells (10^4) BxPC-3” value [2, 10] of the same substance?
Answer: The value was 12.25 10^4.

Question: What about the “Amount of cells (10^4) HepG2” value [2, 10] of the same substance?
Answer: The value was 144.75 10^4.

Question: What about the “Cell proportion (%) BxPC-3” value [2, 10] of the same substance?
Answer: The value was 7.8%.

Question: What about the “Cell proportion (%) HepG2” value [2, 10] of the same substance?
Answer: The value was 92.2%.

Question: And the “Number of viable cells (10^4)” value ([2]; Table 6, same process as effect example 1.2, whole co-culture)?
Answer: Its value is 157.0 10^4.

Question: And the “bystander killing effect (in words)” value ([2]; effect example 1.3)?
Answer: Its value is “had bystander killing effects”.

Question: What about the “inhibition of proliferation (in words)” value [3] of the same substance?
Answer: Its value is “could inhibit the proliferation of FaDu cells”.

Question: And the IC50 ([3]; Table 7)?
Answer: The IC50 was 0.551 nM.

Question: And the “inhibition of proliferation (in words)” value [4]?
Answer: Its value is “could inhibit the proliferation of MDA-MB-468 cells”.

Question: And the IC50 ([4]; Table 9)?
Answer: The IC50 was 2.5 nM.

Question: And the IC50 [5]?
Answer: The IC50 was 0.692 nM.

Question: What about the IC50 [6] of the same substance?
Answer: Its IC50 is 0.17 nM.

Question: What about the IC50 [7] of the same substance?
Answer: The IC50 was 2.1 nM.

Question: And the “Tumor volume (mm^3) Day 35” value ([8]; Table 13, 3 mg/kg, tail vein injection)?
Answer: The value was 847 mm^3 and 847 ± 104 mm^3.

Question: What about the “T/C (%)” value ([8]; Table 13, Day 35) of the same substance?
Answer: The value was 64.05%.

Question: What about the “TGI (%)” value ([8]; Table 13, Day 35) of the same substance?
Answer: The value was 40.54%.

Question: What about the “Tumor volume (mm^3) Day 0” value ([8]; Table 13, tail vein injection) of the same substance?
Answer: The value was 151 ± 12 mm^3.

Question: And the “Tumor volume (mm^3) Day 28” value ([8]; Table 16, 3 mg/kg)?
Answer: The value was 540 mm^3 and 540 ± 74 mm^3.

Question: What about the “T/C (%)” value ([8]; Table 16, Day 28) of the same substance?
Answer: Its value is 58.49%.

Question: What about the “TGI (%)” value ([8]; Table 16, Day 28) of the same substance?
Answer: Its value is 48.52%.

Question: What about the “Tumor volume (mm^3) Day 0” value ([8]; Table 16) of the same substance?
Answer: Its value is 151 ± 12 mm^3.

Question: And the “Tumor volume (mm^3) Day 42” value ([8]; Table 19, 3 mg/kg)?
Answer: The value was 302 mm^3 and 302 ± 73 mm^3.

Question: What about the “T/C (%)” value ([8]; Table 19, Day 42) of the same substance?
Answer: The value was 27.69%.

Question: What about the “TGI (%)” value ([8]; Table 19, Day 42) of the same substance?
Answer: The value was 84.60%.

Question: And the “Tumor volume (mm^3) Day 0” value ([8]; Table 19)?
Answer: Its value is 159 ± 11 mm^3.

Question: And the “tumor growth inhibition (in words)” value ([8]; effect example 3.1.1, compared with the control group)?
Answer: The value was “could significantly inhibit tumor growth”.

Question: And the “tumor growth inhibition (in words)” value ([8]; effect example 3.3.1, after 42 days)?
Answer: The value was “could significantly inhibit tumor growth”.

Question: What about the “Tumor volume (mm^3) Day 21” value ([9]; Table 15, single dose, 5 mg/kg) of the same substance?
Answer: Its value is 8 ± 1 mm^3.

Question: And the “T/C (%)” value [9, 11]?
Answer: The value was 0.48%.

Question: And the “TGI (%)” value [9, 11]?
Answer: Its value is 111.60%.

Question: And the “Tumor volume (mm^3) Day 0” value ([9]; Table 15, single dose, 5 mg/kg, baseline at grouping)?
Answer: Its value is 171 ± 23 mm^3.

Question: And the “tumor growth inhibition (in words)” value ([9]; effect example 3.1.3, 5 mg/kg (ADC-1 also 10 mg/kg), after 21 days)?
Answer: The value was “able to significantly inhibit tumor growth”.
